# Results as given in article PMC13672995, “NCR13 peptide protects soybean against Cercospora sojina using multi-faceted modes of action and additive interaction with chemical fungicides” (Journal of Experimental Botany, 2025).
# Where a SMILES comes first, the peptide text is derived from it.
# Experiments:
# [1] = test system: C. sojina QoI fungicide-resistant isolate Cs350; assay type: cell-based, Cercospora sojina; settings: for MIC (μM) against C. sojina, Fungicide resistant, Cs350: 48 h; for fold increase of MIC with increasing iron concentration: FeSO4 in SFM
# Protocol: (§1) In vitro antifungal activity of AFPs and QoI fungicides was determined using 96-well plate assays as described ([Velivelli et al., 2020]) with slight modifications. Briefly, 2- to 3-week-old C. sojina was used to make a conidial suspension in 2× SFM at the final concentration of ∼10^5 conidia ml^−1. Simultaneously, peptide dilutions (in water) at various concentrations were made. Fungicides were dissolved in 50% acetone and 50% water to make a stock solution of 500 µM, and serial dilutions were made in water as needed. The peptide–conidia or the fungicide–conidia mixture at the ratio of 1:1 (45 µl:45 µl) was added in a 96-well plate and incubated at room temperature for 48 h, after which MICs of the peptides/fungicides were calculated based on microscopy as well as the resazurin cell viability assay ([Velivelli et al., 2020]).
# [2] = test system: C. sojina QoI fungicide-sensitive isolate Cs320; experiment: microbe, parasite or virus in culture; assay type: cell-based, Cercospora sojina; settings: 48 h
# Protocol: as §1
SMILES,"MIC (μM) against C. sojina, Fungicide resistant, Cs350 [1] [µM]",fold increase of MIC with increasing iron concentration [1] [fold],"MIC (μM) against C. sojina isolates, Fungicide sensitive, Cs320 [2] [µM]"
C[C@H](NC(=O)CN)C(=O)N[C@@H](CS)C(=O)N[C@@H](Cc1c[nH]cn1)C(=O)N[C@@H](CCCNC(=N)N)C(=O)N[C@@H](CCC(N)=O)C(=O)NCC(=O)N[C@@H](Cc1ccccc1)C(=O)NCC(=O)N[C@@H](Cc1ccccc1)C(=O)N[C@@H](C)C(=O)N[C@@H](Cc1ccccc1)C(=O)N[C@@H](Cc1ccccc1)C(=O)N[C@@H](Cc1ccccc1)C(=O)N[C@@H](Cc1ccc(O)cc1)C(=O)N[C@@H](CCCCN)C(=O)N[C@@H](CCCCN)C(=O)N[C@@H](CS)C(=O)O [GMA5AC_V2] (H-GACHRQGFGFAFFFYKKC-OH; N-terminus and C-terminus assumed),6,,
C[C@H](NC(=O)CN)C(=O)N[C@@H](CS)C(=O)N[C@@H](Cc1c[nH]cn1)C(=O)N[C@@H](CCCNC(=N)N)C(=O)N[C@@H](CCC(N)=O)C(=O)NCC(=O)N[C@@H](Cc1ccccc1)C(=O)NCC(=O)N[C@@H](Cc1ccccc1)C(=O)N[C@@H](C)C(=O)N[C@@H](Cc1c[nH]c2ccccc12)C(=O)N[C@@H](Cc1ccccc1)C(=O)N[C@@H](Cc1c[nH]c2ccccc12)C(=O)N[C@@H](Cc1ccc(O)cc1)C(=O)N[C@@H](CCCCN)C(=O)N[C@@H](CCCCN)C(=O)N[C@@H](CS)C(=O)O [GMA5AC_V1] (H-GACHRQGFGFAWFWYKKC-OH; N-terminus and C-terminus assumed),6,,
CC(C)[C@H](NC(=O)[C@H](CCCCN)NC(=O)[C@@H]1CCCN1C(=O)[C@H](CCCCN)NC(=O)[C@H](CCCNC(=N)N)NC(=O)[C@H](CS)NC(=O)[C@H](C)NC(=O)[C@H](Cc1ccccc1)NC(=O)[C@H](CCCCN)NC(=O)[C@@H](N)CCCCN)C(=O)N1CCC[C@H]1C(=O)N[C@@H](CCCCN)C(=O)N[C@@H](CS)C(=O)O [NCR13_V7] (H-KKFACRKPKVPKC-OH; N-terminus and C-terminus assumed),12,2,6
CC(C)C[C@H](NC(=O)[C@H](CS)NC(=O)[C@H](C)NC(=O)CN)C(=O)N[C@@H](CCCCN)C(=O)N[C@@H](CC(N)=O)C(=O)N[C@@H](CCCNC(=N)N)C(=O)N[C@@H](Cc1c[nH]cn1)C(=O)N[C@@H](CO)C(=O)N[C@@H](CCCCN)C(=O)N[C@@H](Cc1c[nH]cn1)C(=O)N[C@@H](Cc1ccc(O)cc1)C(=O)NCC(=O)N[C@@H](Cc1c[nH]c2ccccc12)C(=O)N[C@@H](Cc1ccccc1)C(=O)N[C@@H](Cc1c[nH]c2ccccc12)C(=O)N[C@@H](Cc1ccc(O)cc1)C(=O)N[C@@H](Cc1ccc(O)cc1)C(=O)N[C@@H](CCCNC(=N)N)C(=O)N[C@@H](Cc1c[nH]cn1)C(=O)N[C@@H](CS)C(=O)N[C@@H](Cc1ccc(O)cc1)C(=O)O [GMAOe1C_V1] (H-GACLKNRHSKHYGWFWYYRHCY-OH; N-terminus and C-terminus assumed),3 to 6,,
CC[C@H](C)[C@H](NC(=O)[C@H](CCCNC(=N)N)NC(=O)[C@@H](NC(=O)[C@H](Cc1c[nH]c2ccccc12)NC(=O)[C@H](Cc1ccc(O)cc1)NC(=O)[C@H](Cc1c[nH]c2ccccc12)NC(=O)[C@H](CCCNC(=N)N)NC(=O)[C@H](CCCNC(=N)N)NC(=O)[C@H](CC(C)C)NC(=O)[C@H](Cc1ccccc1)NC(=O)CNC(=O)[C@H](CCCCN)NC(=O)[C@H](CS)NC(=O)[C@H](CCCNC(=N)N)NC(=O)CNC(=O)CN)[C@@H](C)O)C(=O)N[C@@H](CS)C(=O)O [GMA4CG_V8] (H-GGRCKGFLRRWYWTRIC-OH),6,,
CC[C@H](C)[C@H](NC(=O)[C@H](CCCNC(=N)N)NC(=O)[C@H](CS)NC(=O)[C@H](CCCNC(=N)N)NC(=O)CNC(=O)[C@@H](N)CO)C(=O)N[C@@H](CC(C)C)C(=O)N[C@@H](Cc1ccccc1)C(=O)N[C@@H](CCCNC(=N)N)C(=O)N[C@@H](Cc1c[nH]c2ccccc12)C(=O)N[C@@H](Cc1ccccc1)C(=O)N[C@@H](Cc1c[nH]c2ccccc12)C(=O)N[C@H](C(=O)N[C@@H](CCCCN)C(=O)N[C@@H](CC(N)=O)C(=O)N[C@@H](CS)C(=O)O)[C@@H](C)O [GMA1C_V2] (H-SGRCRILFRWFWTKNC-OH),6,,
N=C(N)NCCC[C@H](NC(=O)[C@H](CS)NC(=O)[C@H](Cc1c[nH]c2ccccc12)NC(=O)[C@H](Cc1ccccc1)NC(=O)[C@H](CCCCN)NC(=O)[C@@H](N)CCCCN)C(=O)N[C@@H](CCCCN)C(=O)N1CCC[C@H]1C(=O)N[C@@H](CCCCN)C(=O)N[C@@H](Cc1c[nH]c2ccccc12)C(=O)N1CCC[C@H]1C(=O)N[C@@H](CCCCN)C(=O)N[C@@H](CS)C(=O)O [NCR13_V9] (H-KKFWCRKPKWPKC-OH; N-terminus and C-terminus assumed),6,2,3
CC[C@H](C)[C@H](NC(=O)[C@H](CCCNC(=N)N)NC(=O)[C@@H](NC(=O)[C@H](Cc1ccccc1)NC(=O)[C@H](Cc1c[nH]c2ccccc12)NC(=O)[C@H](Cc1ccccc1)NC(=O)[C@H](CCCNC(=N)N)NC(=O)[C@H](CCCNC(=N)N)NC(=O)[C@H](CC(C)C)NC(=O)[C@H](Cc1ccccc1)NC(=O)CNC(=O)[C@H](CCCCN)NC(=O)[C@H](CS)NC(=O)[C@H](CCCNC(=N)N)NC(=O)CNC(=O)CN)[C@@H](C)O)C(=O)N[C@@H](CS)C(=O)O [GMA4CG_V7] (H-GGRCKGFLRRFWFTRIC-OH),6,,
CC[C@H](C)[C@H](NC(=O)[C@H](CCCNC(=N)N)NC(=O)[C@H](CS)NC(=O)[C@H](CCCNC(=N)N)NC(=O)CNC(=O)[C@@H](N)CO)C(=O)N[C@@H](CC(C)C)C(=O)N[C@@H](Cc1ccccc1)C(=O)N[C@@H](CCCNC(=N)N)C(=O)N[C@@H](Cc1c[nH]c2ccccc12)C(=O)N[C@@H](Cc1ccc(O)cc1)C(=O)N[C@@H](Cc1ccccc1)C(=O)N[C@H](C(=O)N[C@@H](CCCCN)C(=O)N[C@@H](CC(N)=O)C(=O)N[C@@H](CS)C(=O)O)[C@@H](C)O [GMA1C_V3] (H-SGRCRILFRWYFTKNC-OH),6,,
